The text below walks through data of ChEMBL document CHEMBL4732126, “Design, synthesis, and biodistribution studies of new analogues of marine alkaloids: Potent in vitro and in vivo fungicidal agents against Candida spp” (Eur J Med Chem, 2021).

In brackets after ≈: the same amount, converted by molar mass.

What all share (type): functional
Assay [1] deals with Candida albicans. Description: Antifungal activity against Candida albicans isolate 13 assessed as reduction in fungal growth incubated for 48 hrs by broth microdilution method. For orientation: Broth dilution looks for growth in wells or tubes with falling amounts of substance.
For assay [2], the system named is Candida albicans. In words: Antifungal activity against Candida albicans isolate 12 assessed as reduction in fungal growth incubated for 48 hrs by broth microdilution method.
Assay [3] relates to Pichia kudriavzevii. In words: Antifungal activity against Candida krusei ATCC 34135 assessed as reduction in fungal growth incubated for 48 hrs by broth microdilution method.
In assay [4] the test system is Candida albicans. Description: Antifungal activity against Candida albicans ATCC 18804 assessed as reduction in fungal growth incubated for 48 hrs by broth microdilution method.
Assay [5] relates to Candida albicans. Description: Antifungal activity against Candida albicans isolate 8 assessed as reduction in fungal growth incubated for 48 hrs by broth microdilution method.
The subject of assay [6] is Candida albicans. Description: Antifungal activity against Candida albicans isolate 7 assessed as reduction in fungal growth incubated for 48 hrs by broth microdilution method.
The test system of assay [7] is Candida albicans. In words: Antifungal activity against Candida albicans isolate 11 assessed as reduction in fungal growth incubated for 48 hrs by broth microdilution method.
The subject of assay [8] is Candida tropicalis. In words: Antifungal activity against Candida tropicalis ATCC 28707 assessed as reduction in fungal growth incubated for 48 hrs by broth microdilution method.
Assay [9] concerns Candida albicans. Description: Antifungal activity against Candida albicans isolate 6 assessed as reduction in fungal growth incubated for 48 hrs by broth microdilution method.
Assay [10] has as its system Candida albicans. In words: Antifungal activity against Candida albicans ATCC 10231 assessed as reduction in fungal growth incubated for 48 hrs by broth microdilution method.
Assay [11] relates to Nakaseomyces glabratus. Description: Antifungal activity against Candida glabrata ATCC 2001 assessed as reduction in fungal growth incubated for 48 hrs by broth microdilution method.
The subject of assay [12] is Candida tropicalis. In words: Fungicidal activity against Candida tropicalis ATCC 28707 assessed as fungal killing incubated for 48 hrs followed by plating on SD agar plate. The settings on record: for MFC: read-out: MFC99.9.
Assay [13] deals with Candida albicans. Description: Antifungal activity against Candida albicans isolate 9 assessed as reduction in fungal growth incubated for 48 hrs by broth microdilution method.
Assay [14] relates to Candida albicans. In words: Antifungal activity against Candida albicans isolate 10 assessed as reduction in fungal growth incubated for 48 hrs by broth microdilution method.
Assay [15] has as its system Candida albicans. In words: Fungicidal activity against Candida albicans ATCC 18804 assessed as fungal killing incubated for 48 hrs followed by plating on SD agar plate.
Assay [16] concerns Pichia kudriavzevii. Description: Fungicidal activity against Candida krusei ATCC 34135 assessed as fungal killing incubated for 48 hrs followed by plating on SD agar plate.
Assay [17] has as its system Candida albicans. Description: Fungicidal activity against Candida albicans isolate 7 assessed as fungal killing incubated for 48 hrs followed by plating on SD agar plate.
Assay [18] deals with Nakaseomyces glabratus. Description: Fungicidal activity against Candida glabrata ATCC 2001 assessed as fungal killing incubated for 48 hrs followed by plating on SD agar plate.
The subject of assay [19] is Candida albicans. Description: Fungicidal activity against Candida albicans isolate 12 assessed as fungal killing incubated for 48 hrs followed by plating on SD agar plate.
Assay [20] has as its system Candida albicans. In words: Fungicidal activity against Candida albicans isolate 9 assessed as fungal killing incubated for 48 hrs followed by plating on SD agar plate.
In assay [21] the test system is Candida albicans. In words: Fungicidal activity against Candida albicans isolate 6 assessed as fungal killing incubated for 48 hrs followed by plating on SD agar plate.
Assay [22] concerns Candida albicans. In words: Fungicidal activity against Candida albicans isolate 11 assessed as fungal killing incubated for 48 hrs followed by plating on SD agar plate.
In assay [23] the test system is Candida albicans. Description: Fungicidal activity against Candida albicans ATCC 10231 assessed as fungal killing incubated for 48 hrs followed by plating on SD agar plate.
In assay [24] the test system is Candida albicans. In words: Fungicidal activity against Candida albicans isolate 13 assessed as fungal killing incubated for 48 hrs followed by plating on SD agar plate.
The test system of assay [25] is Candida albicans. Description: Fungicidal activity against Candida albicans isolate 10 assessed as fungal killing incubated for 48 hrs followed by plating on SD agar plate.
Assay [26] has as its system Candida tropicalis. Description: Antifungal activity against Candida tropicalis ATCC 28707 assessed as reduction in fungal growth incubated for 48 hrs in presence of ergosterol by broth microdilution method.
For assay [27], the system named is Nakaseomyces glabratus. In words: Antifungal activity against Candida glabrata ATCC 2001 assessed as reduction in fungal growth incubated for 48 hrs in presence of ergosterol by broth microdilution method.
Assay [28] relates to Candida albicans. In words: Fungicidal activity against Candida albicans isolate 8 assessed as fungal killing incubated for 48 hrs followed by plating on SD agar plate.
The subject of assay [29] is Candida albicans. In words: Antibiofilm activity against Candida albicans ATCC 10231 assessed as reduction in mature biofilm at 125 ug/ml incubated for 48 hrs by crystal violet staining based spectrophotometric analysis relative to control. The settings on record: dose 125.0 µg/ml.
Assay [30] has as its system Pichia kudriavzevii. Description: Antifungal activity against Candida krusei ATCC 34135 assessed as reduction in fungal growth incubated for 48 hrs in presence of ergosterol by broth microdilution method.
Assay [31] deals with Candida albicans. Description: Antifungal activity against Candida albicans ATCC 10231 assessed as reduction in fungal growth incubated for 48 hrs in presence of ergosterol by broth microdilution method.

For the molecule `[N-]=[N+]=NCCCCCCCCCCCCOCCCc1cccnc1`, the MIC in the assay on Candida albicans [1], in the assay on Candida albicans [2], in the assay on Pichia kudriavzevii [3], with Candida albicans [4], with Candida albicans [5] and in the assay on Candida albicans [6] was over 500 µg/mL throughout. For the same molecule, the minimal inhibitory concentration (MIC) is over 500 µg/mL in the assay with Candida albicans [7]; 40 µg/mL (≈ 115 µM) in the assay on Candida tropicalis [8]; over 500 µg/mL in the assay on Candida albicans [9]; over 500 µg/mL in the assay with Candida albicans [10]; over 500 µg/mL with Nakaseomyces glabratus [11]; over 500 µg/mL in the assay on Candida albicans [13]. Also, in the assay with Candida albicans [14], the minimum inhibitory concentration (MIC) is over 500 µg/mL. For the same molecule, the MFC with Candida tropicalis [12] was 160 µg/mL (≈ 462 µM).

For the molecule `COC(=O)CCNCCCCCCCCCCCCOCCCc1cccnc1`, the MFC with Candida albicans [15] (read-out: MFC99.9) was 250 µg/mL (≈ 615 µM); with Pichia kudriavzevii [16] (read-out: MFC99.9), 250 µg/mL (≈ 615 µM); with Candida albicans [17] (read-out: MFC99.9), 250 µg/mL (≈ 615 µM); in the assay on Nakaseomyces glabratus [18] (read-out: MFC99.9) it was 160 µg/mL (≈ 393 µM); in the assay on Candida albicans [19] (read-out: MFC99.9), over 500 µg/mL; in the assay on Candida albicans [20] (read-out: MFC99.9) it was 250 µg/mL (≈ 615 µM). In addition, the MFC in the assay with Candida albicans [21] (read-out: MFC99.9) was over 500 µg/mL; with Candida albicans [22] (read-out: MFC99.9) it was 250 µg/mL (≈ 615 µM); in the assay with Candida tropicalis [12], 160 µg/mL (≈ 393 µM); in the assay with Candida albicans [23] (read-out: MFC99.9), 250 µg/mL (≈ 615 µM); with Candida albicans [24] (read-out: MFC99.9) it was 160 µg/mL (≈ 393 µM); in the assay on Candida albicans [25] (read-out: MFC99.9), 250 µg/mL (≈ 615 µM). The MIC in the assay on Candida albicans [1] was 160 µg/mL (≈ 393 µM); in the assay on Candida albicans [2], 250 µg/mL (≈ 615 µM); with Pichia kudriavzevii [3], 250 µg/mL (≈ 615 µM); with Candida albicans [4] it was 250 µg/mL (≈ 615 µM); in the assay on Candida albicans [5] it was over 500 µg/mL; with Candida albicans [6], 250 µg/mL (≈ 615 µM). For the same molecule, the minimum inhibitory concentration (MIC) in the assay on Candida albicans [7] came to 250 µg/mL (≈ 615 µM); in the assay with Candida tropicalis [8], 160 µg/mL (≈ 393 µM); in the assay with Candida albicans [9] it was 250 µg/mL (≈ 615 µM); in the assay on Candida albicans [10], 250 µg/mL (≈ 615 µM); in the assay on Nakaseomyces glabratus [11], 160 µg/mL (≈ 393 µM); in the assay on Candida albicans [13] it was 250 µg/mL (≈ 615 µM). Moreover, in the assay with Candida albicans [14], the minimum inhibitory concentration (MIC) came to 250 µg/mL (≈ 615 µM).

For the molecule NYSTATIN, the MFC99.9 in the assay on Candida albicans [15] is 4 µg/mL; in the assay on Pichia kudriavzevii [16], 8 µg/mL; in the assay with Candida albicans [17] it was 4 µg/mL; in the assay on Nakaseomyces glabratus [18], 4 µg/mL; in the assay on Candida albicans [19], 4 µg/mL; in the assay with Candida albicans [28], 4 µg/mL. Further, the MFC99.9 with Candida albicans [20] was 4 µg/mL; with Candida albicans [21] it was 4 µg/mL; in the assay on Candida albicans [22], 4 µg/mL; in the assay with Candida tropicalis [12], 2 µg/mL; with Candida albicans [23], 4 µg/mL; in the assay with Candida albicans [24], 2 µg/mL. Moreover, in the assay on Candida albicans [25], the MFC99.9 came to 4 µg/mL. Moreover, the minimum inhibitory concentration (MIC) in the assay with Candida albicans [1] stood at 2 µg/mL; in the assay with Candida albicans [2], 2 µg/mL; in the assay on Pichia kudriavzevii [3], 8 µg/mL; with Candida tropicalis [26], 3.9 µg/mL; with Nakaseomyces glabratus [27], 31.2 µg/mL; in the assay on Candida albicans [4] it was 4 µg/mL. The minimal inhibitory concentration (MIC) in the assay on Candida albicans [5] worked out at 4 µg/mL; in the assay with Candida albicans [6] it was 4 µg/mL; with Candida albicans [7], 4 µg/mL; in the assay on Candida tropicalis [8], 2 µg/mL; in the assay with Candida albicans [9], 4 µg/mL; with Pichia kudriavzevii [30] it was 31.2 µg/mL. Besides, the MIC turned out to be 4 µg/mL in the assay on Candida albicans [10]; 4 µg/mL in the assay with Nakaseomyces glabratus [11]; 4 µg/mL in the assay on Candida albicans [13]; 4 µg/mL with Candida albicans [14]; 31.2 µg/mL in the assay with Candida albicans [31]. Moreover, in the assay on Candida albicans [29], the inhibition stood at 25%.

As a reminder, the MIC is the smallest concentration in the dilution series that meets the test's criterion for growth inhibition. What is called inhibition is the drop in the measured response relative to a control, in per cent.
